Source: patent US6407079B1, “Pharmaceutical compositions containing drugs which are instable or sparingly soluble in water and methods for their preparation” (Janssen Pharmaceutica N.V., priority 1985, dated 2002)
≈ marks a conversion by molar mass, not a printed value. Like-named read-outs stand apart in the source and are kept apart here.

What was measured:
[1] = 24 h
physchem = conditions: for solubility at 24 h: 25 °C, thermodynamic from solid; for Ratio S1:S2: 24 h, pH 6.6
[2] = Solubility of drugs in 4% aqueous hydroxypropyl-methyl-β-cyclodextrin solution (Example 2B); conditions: in water, 4% hydroxypropyl-methyl-β-cyclodextrin (DS 0.96; MS 0.43)
[3] = German Offenlegungsschrift 31 18 218; cited from earlier work
[4] = Storage stability of indometacin solutions, HPLC (Example 3); format: physicochemical; conditions: for Indometacin content: 21° C.
Experimental: In 10 ml phosphate buffer solution 0.7 g hydroxyethyl-β-cyclodextrin (MS 0.43) were dissolved together with 0.04 g indometacin at 25° C. until a clear solution was formed. […] (B). In a parallel test a saturated indometacin solution in a phosphate buffer solution (0.21 mg/ml) was stored under the same conditions (A). The great improved stability of the composition according to the invention is apparent.

[5] = Dissolution rate of medroxyprogesterone acetate from tablet (Example 5); format: physicochemical; conditions: tablet with hydroxyethyl-β-cyclodextrin (MS 0.43), 5 mg drug per unit dose
Experimental: In 100 ml water 7 g hydroxyethyl-β-cyclodextrin (MS 0.43) and 0.5 g medroxyprogesterone acetate were dissolved. The water was then evaporated in a rotation evaporator The residue (75 mg) was powdered and after addition of 366 mg calcium hydrogen phosphate.2H2O, 60 mg corn starch, 120 mg cellulose powder (microcrystalline), 4.2 mg highly dispersed silica (AEROSIL® 200) and 4.8 mg magnesium stearate tablets with a weight of 630.0 mg and comprising 5 mg drug per unit dose were made. The dissolution rate of the medroxyprogesterone acetate from this formulation is 21 times higher when compared to a tablet comprising the same inert ingredients without addition of the β-cyclodextrin ether.

rats = format: in vivo
Experimental: The acute intravenous toxicity of some β-cyclodextrins was tested on rats with the following results.

[6] = cited from earlier work
human red blood cells = assay: Haemolytic effect on human red blood cells; format: cell-based; conditions: 30 minutes at 37° C., optical density at 540 nm
Experimental: The haemolytic effect of the methylether according to German Offenlegungsschrift 31 18 218 was compared to that of an ether used according to the invention. To this end 100 μl of a physiological sodium chloride solution with a cyclodextrin content of 10%, 800 μl of a buffer (400 mg MOPS, 36 mg Na2HPO4.2H2O, 1,6 g NaCl in 200 ml H2O) and 100 μl of a suspension of human red blood cells (three times washed with sodium chloride solution) were mixed for 30 minutes at 37° C. Thereafter the mixture was centrifuged and the optical density was determined at 540 nm.
a) 100 μl sodium chloride solution+buffer+0% haemolysis
b) 900 μl water→100% haemolysis

[7] = pH 6.6, aqueous with cosolvent or surfactant or cyclodextrin

Compound: COc1cc(N)c(Cl)cc1C(=O)NC1CCN(CCCOc2ccc(F)cc2)CC1OC (stereo not shown) [Cisapride]
- R, ratio of saturation solubility with and without β-cyclodextrin derivative [1]: 3

Compound: C[C@@H]1C[C@H]2[C@@H]3CCC4=CC(=O)C=C[C@]4(C)[C@@]3(F)[C@@H](O)C[C@]2(C)[C@@]1(O)C(=O)CO [Dexamethasone]
- solubility at 24 h (physchem; pH 6.6, aqueous buffer): 83 µg/mL (≈ 0.211 mM)
- solubility at 24 h (physchem; [7]): 14300 µg/mL (≈ 36.4 mM)

Compound: CCOC(=O)c1cncn1[C@H](C)c1ccccc1 [Etomidate]
- R, ratio of saturation solubility with and without β-cyclodextrin derivative [2]: 8.5

Compound: COC(=O)Nc1nc2cc(C(=O)c3ccc(F)cc3)ccc2[nH]1 [Flubendazole]
- R, ratio of saturation solubility with and without β-cyclodextrin derivative [1]: 30

Compound: Fc1ccc(C(c2ccc(F)cc2)N2CCN(C/C=C/c3ccccc3)CC2)cc1 [Flunarizine]
- R, ratio of saturation solubility with and without β-cyclodextrin derivative [1]: 18

Compound: COc1ccc2c(c1)c(CC(=O)O)c(C)n2C(=O)c1ccc(Cl)cc1 [Indometacine]
- Increase of water solubility with the 2,6-di-O-methyl derivative of β-cyclodextrin [3]: 20.4 fold
- solubility at 24 h (physchem; pH 6.6, aqueous buffer): 190 µg/mL (≈ 0.531 mM)
- solubility at 24 h (physchem; [7]): 5720 µg/mL (≈ 16 mM)
- Ratio S1:S2 (physchem): 1:30.1
- Indometacin content ([4]; A: saturated solution in phosphate buffer, 0 weeks): 100.1%
- Indometacin content ([4]; A: saturated solution in phosphate buffer, 2 weeks): 91.2%
- Indometacin content ([4]; A: saturated solution in phosphate buffer, 4 weeks): 79.1%
- Indometacin content ([4]; A: saturated solution in phosphate buffer, 6 weeks): 69.8%
- Indometacin content ([4]; A: saturated solution in phosphate buffer, 8 weeks): 64.8%
- Indometacin content ([4]; B: with hydroxyethyl-β-cyclodextrin (MS 0.43) in phosphate buffer, 0 weeks): 99.7%
- Indometacin content ([4]; B: with hydroxyethyl-β-cyclodextrin (MS 0.43) in phosphate buffer, 2 weeks): 99.9%
- Indometacin content ([4]; B: with hydroxyethyl-β-cyclodextrin (MS 0.43) in phosphate buffer, 4 weeks): 98.1%
- Indometacin content ([4]; B: with hydroxyethyl-β-cyclodextrin (MS 0.43) in phosphate buffer, 6 weeks): 98.6%
- Indometacin content ([4]; B: with hydroxyethyl-β-cyclodextrin (MS 0.43) in phosphate buffer, 8 weeks): 98.4%
- Concentration of saturated indometacin solution in phosphate buffer solution ([4]; phosphate buffer solution, no cyclodextrin): 210 µg/mL

Compound: CCC(C)n1ncn(-c2ccc(N3CCN(c4ccc(OCC5COC(Cn6cncn6)(c6ccc(Cl)cc6Cl)O5)cc4)CC3)cc2)c1=O (stereo not shown) [Itraconazole]
- R, ratio of saturation solubility with and without β-cyclodextrin derivative ([1]; pH 2.5): 75
- R, ratio of saturation solubility with and without β-cyclodextrin derivative ([1]; pH 5): 96

Compound: CC(=O)N1CCN(c2ccc(OCC3COC(Cn4ccnc4)(c4ccc(Cl)cc4Cl)O3)cc2)CC1 (stereo not shown) [Ketoconazole]
- R, ratio of saturation solubility with and without β-cyclodextrin derivative [1]: 85

Compound: C[C@@H]1CN([C@H]2CC[C@](C#N)(c3ccc(F)cc3)CC2)CC[C@]1(C(=O)O)c1ccccc1 [Levocabastine]
- R, ratio of saturation solubility with and without β-cyclodextrin derivative ([1]; pH 7.4): 8
- R, ratio of saturation solubility with and without β-cyclodextrin derivative ([1]; pH 9.5): 81

Compound: CN(C)C(=O)C(CCN1CCC(O)(c2ccc(Cl)cc2)CC1)(c1ccccc1)c1ccccc1 [Loperamide]
- R, ratio of saturation solubility with and without β-cyclodextrin derivative [2]: 62

Compound: CC(=O)[C@H]1CC[C@H]2[C@@H]3CCC4=CC(=O)CC[C@]4(C)[C@H]3CC[C@]12C [Progesterone]
- solubility at 24 h (physchem; pH 6.6, aqueous buffer): 7.1 µg/mL (≈ 0.0226 mM)
- solubility at 24 h (physchem; [7]): 7690 µg/mL (≈ 24.5 mM)
- Ratio S1:S2 (physchem): 1:1083.0

Compound: CCOC(=O)Nc1ccc(SC[C@@H]2CO[C@@](Cn3ccnc3)(c3ccc(Cl)cc3Cl)O2)cc1 [Tubulazole]
- R, ratio of saturation solubility with and without β-cyclodextrin derivative [2]: 43

Compound: CC(=O)O[C@]1(C(C)=O)CC[C@H]2[C@@H]3C[C@H](C)C4=CC(=O)CC[C@]4(C)[C@H]3CC[C@@]21C [medroxyprogesterone acetate]
- Dissolution rate, times higher than tablet without β-cyclodextrin ether [5]: 21 times

Compound: OC[C@H]1O[C@@H]2O[C@H]3[C@H](O)[C@@H](O)[C@@H](O[C@H]4[C@H](O)[C@@H](O)[C@@H](O[C@H]5[C@H](O)[C@@H](O)[C@@H](O[C@H]6[C@H](O)[C@@H](O)[C@@H](O[C@H]7[C@H](O)[C@@H](O)[C@@H](O[C@H]8[C@H](O)[C@@H](O)[C@@H](O[C@H]1[C@H](O)[C@H]2O)O[C@@H]8CO)O[C@@H]7CO)O[C@@H]6CO)O[C@@H]5CO)O[C@@H]4CO)O[C@@H]3CO [β-cyclodextrin]
- LD50 in rats (i.v.) (rats): 453 mg/kg bodyweight
- Water solubility [6]: 1.8 g/100 ml

Compound: dimethyl-β-cyclodextrin [dimethyl-β-cyclodextrin (DS 2.0)]
- LD50 in rats (i.v.) (rats): 200-207 mg/kg bodyweight
- C50%, concentration at which 50% haemolysis occurred (human red blood cells): 0.33%
- C100%, concentration at which 100% haemolysis occurred (human red blood cells): 0.5%
